Where two headings read alike, the source gives them in different places.

Here are results for four compounds from patent publication US20230265151A1, “GIP/GLP1 CO-AGONIST COMPOUNDS” (priority 2020, published 2023).

For test [1], the target named is hGLP-1R (Homo sapiens, UniProt P43220). Put plainly: Functional cAMP formation (HTRF) in HEK-293 clonal cells expressing hGLP-1R, 0.1% bovine casein, without or with 1.0% human serum albumin. It counts as cell-based. Set-up: expressed in transfected cells. The conditions noted are these: for Emax: percent of maximal response to GLP-1(7-36)NH2; for EC50: cAMP, 37° C. The essentials:
(§1)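 Cells were stimulated with peptide for 30 min at 37° C, then intracellular cAMP was measured by competitive HTRF (665/620 nm ratio) and converted to nM using a cAMP standard curve. Relative EC50 and Emax came from four-parameter logistic fits of percent maximal response against peptide concentration.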
A general note: Cyclic AMP is a second messenger, typically raised through Gs and lowered through Gi signalling.

In test [2] the target is T1, human GIP receptor (hGIPR) (Homo sapiens, UniProt P48546).
T1 construct: expressed in transfected cells; crude membranes
T1 sequence (P48546 22-466): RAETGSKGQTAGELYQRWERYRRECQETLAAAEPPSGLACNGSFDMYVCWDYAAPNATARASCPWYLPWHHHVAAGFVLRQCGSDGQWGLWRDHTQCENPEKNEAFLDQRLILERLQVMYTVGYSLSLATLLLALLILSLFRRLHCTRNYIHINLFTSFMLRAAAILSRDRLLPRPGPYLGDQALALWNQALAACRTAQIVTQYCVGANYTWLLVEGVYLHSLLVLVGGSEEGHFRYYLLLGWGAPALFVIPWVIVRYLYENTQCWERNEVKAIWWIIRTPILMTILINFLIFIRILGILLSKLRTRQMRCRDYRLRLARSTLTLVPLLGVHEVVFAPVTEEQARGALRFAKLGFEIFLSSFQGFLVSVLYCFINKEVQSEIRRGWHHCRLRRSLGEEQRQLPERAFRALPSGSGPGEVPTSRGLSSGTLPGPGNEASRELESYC
Put plainly: [125I]-GIP binding, SPA with membranes of CHO cells expressing hGIPR.

In test [3] the target is T2, hGCGR (Homo sapiens, UniProt P47871).
T2 construct: expressed in transfected cells
T2 sequence (P47871 26-477): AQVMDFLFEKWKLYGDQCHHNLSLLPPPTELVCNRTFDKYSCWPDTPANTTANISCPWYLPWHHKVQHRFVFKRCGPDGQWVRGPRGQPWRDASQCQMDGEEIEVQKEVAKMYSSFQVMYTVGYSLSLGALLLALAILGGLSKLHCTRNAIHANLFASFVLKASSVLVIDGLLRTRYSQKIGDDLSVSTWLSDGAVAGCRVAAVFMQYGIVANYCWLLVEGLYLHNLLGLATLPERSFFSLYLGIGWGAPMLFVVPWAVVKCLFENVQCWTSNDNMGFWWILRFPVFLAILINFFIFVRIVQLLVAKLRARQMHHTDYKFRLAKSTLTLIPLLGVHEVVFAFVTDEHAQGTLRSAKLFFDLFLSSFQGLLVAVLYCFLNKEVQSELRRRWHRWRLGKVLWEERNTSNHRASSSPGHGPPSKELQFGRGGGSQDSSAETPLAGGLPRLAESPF
Put plainly: Functional cAMP formation (HTRF) in HEK-293 clonal cells expressing hGCGR, 0.1% bovine casein, without or with 1.0% human serum albumin. It counts as cell-based. The conditions noted are these: cAMP, 37° C. The essentials:
as §1

Test [4] deals with T3, hGIPR (Homo sapiens, UniProt P48546).
T3 construct: expressed in transfected cells
T3 sequence (P48546 22-466): T1 sequence (P48546 22-466)
Put plainly: Functional cAMP formation (HTRF) in HEK-293 clonal cells expressing hGIPR, 0.1% bovine casein, without or with 1.0% human serum albumin. It counts as cell-based. Conditions: for Emax: percent of maximal response to GIP(1-42)NH2; for EC50: cAMP. The essentials: as §1

Test [5] has as its target T4, human GLP-1 receptor (hGLP-1R) (Homo sapiens, UniProt P43220).
T4 construct: expressed in transfected cells; crude membranes
Put plainly: [125I]-GLP-1 binding, SPA with membranes of HEK293 cells expressing hGLP-1R.

[6] abbreviates: HEK293, read-out: hGLP-1R Emax, % ± SEM, cAMP, 37° C., 0.1% bovine casein, arithmetic mean.
The mark [7] stands for this setting: hGLP-1R EC50, nM (SEM, n), 0.1% bovine casein (no human serum albumin), geometric mean.
Setting [8] is: hGCGR EC50, nM (SEM, n), 0.1% bovine casein (no human serum albumin), geometric mean.
The mark [9] stands for this setting: hGCGR EC50, nM (SEM, n), 0.1% bovine casein and 1.0% human serum albumin, geometric mean (SEM, n).
The mark [10] stands for this setting: hGIPR EC50, nM (SEM, n), 37° C., 0.1% bovine casein (no human serum albumin), geometric mean.

Sequence of hGLP-1R (P43220 24-463): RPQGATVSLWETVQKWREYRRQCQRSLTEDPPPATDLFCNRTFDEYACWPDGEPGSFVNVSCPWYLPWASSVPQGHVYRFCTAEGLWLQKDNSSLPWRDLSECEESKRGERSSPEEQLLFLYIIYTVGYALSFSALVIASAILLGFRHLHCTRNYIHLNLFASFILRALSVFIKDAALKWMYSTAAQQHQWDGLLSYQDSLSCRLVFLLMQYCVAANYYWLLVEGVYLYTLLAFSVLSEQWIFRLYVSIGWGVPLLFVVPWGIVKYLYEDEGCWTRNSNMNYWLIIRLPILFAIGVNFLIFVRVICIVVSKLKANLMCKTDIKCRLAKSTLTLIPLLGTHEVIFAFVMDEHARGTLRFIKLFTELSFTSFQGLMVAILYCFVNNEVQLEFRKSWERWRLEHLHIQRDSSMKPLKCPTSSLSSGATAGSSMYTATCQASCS
T4 sequence (P43220 24-463): as above

Usually Emax stands for the greatest response seen or fitted, relative to the assay's reference. By EC50 is commonly meant the concentration giving half of the maximal effect. One may read the Ki as the dissociation constant of the complex between target and ligand, obtained from inhibition or displacement. Turning to `CC[C@H](C)[C@H](NC(=O)[C@H](CC(C)C)NC(=O)[C@](C)(Cc1ccc(O)cc1)NC(=O)[C@H](CCCCNC(=O)COCCOCCNC(=O)CCCCCNC(=O)CC[C@H](NC(=O)CCCCCCCCCOc1ccc(C(=O)O)cc1)C(=O)O)NC(=O)[C@@H](NC(=O)[C@H](Cc1ccccc1)NC(=O)[C@H](CCCN)NC(=O)C(C)(C)NC(=O)[C@H](CCC(N)=O)NC(=O)[C@H](C)NC(=O)[C@H](CCC(N)=O)NC(=O)[C@H](CCCN)NC(=O)[C@H](CC(=O)O)NC(=O)[C@H](CC(C)C)NC(=O)[C@](C)(CC(C)C)NC(=O)[C@@H](NC(=O)C(C)(C)NC(=O)[C@H](Cc1ccncc1)NC(=O)[C@H](CC(=O)O)NC(=O)[C@H](CO)NC(=O)[C@@H](NC(=O)[C@](C)(Cc1ccccc1F)NC(=O)[C@@H](NC(=O)CNC(=O)[C@H](CCC(=O)O)NC(=O)C(C)(C)NC(=O)[C@@H](N)Cc1ccc(O)cc1)[C@@H](C)O)[C@@H](C)O)[C@@H](C)CC)[C@@H](C)CC)C(=O)N[C@@H](CCCCNC(=O)COCCOCCNC(=O)CCCCCNC(=O)CC[C@H](NC(=O)CCCCCCCCCOc1ccc(C(=O)O)cc1)C(=O)O)C(=O)NCC(=O)NCC(=O)N1CCC[C@H]1C(=O)N[C@@H](CO)C(=O)N[C@@H](CO)C(=O)NCC(=O)N[C@@H](C)C(=O)N1CCC[C@H]1C(=O)N1CCC[C@H]1C(=O)N1CCC[C@H]1C(=O)N[C@@H](CO)C(N)=O` [Example 453], the Emax was found to be 116% in test [1] (setting [6]); 92% in test [4] (HEK293, read-out: hGIPR Emax, % ± SEM, cAMP, 37° C., 0.1% bovine casein and 1.0% human serum albumin). For the same compound, the EC50 in test [1] (setting [7]) was 0.2 nM; in test [1] (hGLP-1R EC50, nM (SEM, n), 0.1% bovine casein and 1.0% human serum albumin, geometric mean (SEM, n)) it was 5.47 nM; in test [3] (setting [8]), > 9950 nM; in test [3] (setting [9]), > 9950 nM; in test [4] (setting [10]), 0.0139 nM. Further, the Ki came to 0.013 nM in test [2] and 0.123 nM in test [5].
Take `CCCCCCCCCCCC(=O)N[C@@H](CCC(=O)NCCOCCOCC(=O)NCCOCCOCC(=O)NCCCC[C@H](NC(=O)[C@H](CCCN)NC(=O)[C@H](CC(=O)O)NC(=O)[C@H](CC(C)C)NC(=O)[C@](C)(CC(C)C)NC(=O)[C@@H](NC(=O)C(C)(C)NC(=O)[C@H](Cc1ccncc1)NC(=O)[C@H](CC(=O)O)NC(=O)[C@H](CO)NC(=O)[C@@H](NC(=O)[C@](C)(Cc1ccccc1F)NC(=O)[C@@H](NC(=O)CNC(=O)[C@H](CCC(=O)O)NC(=O)C(C)(C)NC(=O)[C@@H](N)Cc1ccc(O)cc1)[C@@H](C)O)[C@@H](C)O)[C@@H](C)CC)C(=O)N[C@@H](C)C(=O)N[C@@H](CCC(N)=O)C(=O)NC(C)(C)C(=O)N[C@@H](CCCN)C(=O)N[C@@H](Cc1ccccc1)C(=O)N[C@H](C(=O)N[C@H](CCC(=O)O)C(=O)N[C@@](C)(Cc1ccc(O)cc1)C(=O)N[C@@H](CC(C)C)C(=O)N[C@H](C(=O)N[C@@H](CCCCNC(=O)COCCOCCNC(=O)COCCOCCNC(=O)CC[C@H](NC(=O)CCCCCCCCCCC)C(=O)O)C(=O)NCC(=O)NCC(=O)N1CCC[C@H]1C(=O)N[C@@H](CO)C(=O)N[C@@H](CO)C(=O)NCC(=O)N[C@@H](C)C(=O)N1CCC[C@H]1C(=O)N1CCC[C@H]1C(=O)N1CCC[C@H]1C(=O)N[C@@H](CO)C(N)=O)[C@@H](C)CC)[C@@H](C)CC)C(=O)O` [Example 414]: the EC50 in test [1] (0.1% bovine casein (no human serum albumin), geometric mean, read-out: hGLP-1R EC50, nM (SEM, n)) was 0.119 nM; in test [3] (0.1% bovine casein (no human serum albumin), geometric mean, read-out: hGCGR EC50, nM (SEM, n)), > 9950 nM; in test [3] (0.1% bovine casein and 1.0% human serum albumin, geometric mean (SEM, n), read-out: hGCGR EC50, nM (SEM, n)), > 9950 nM; in test [4] (37° C., 0.1% bovine casein (no human serum albumin), geometric mean, read-out: hGIPR EC50, nM (SEM, n)), 0.00961 nM; in test [4] (37° C., 0.1% bovine casein and 1.0% human serum albumin, geometric mean (SEM, n), read-out: hGIPR EC50, nM (SEM, n)), 0.274 nM. For the same compound, the Ki in test [2] (human GIPR, geometric mean (SEM, n), read-out: Binding Affinity Ki, nM (SEM, n) hGIPR) turned out to be 0.0229 nM; in test [5] (human GLP-1R, geometric mean (SEM, n), read-out: Binding Affinity Ki, nM (SEM, n) hGLP-1R), 0.194 nM. In test [4] (HEK293, cAMP, 37° C., 0.1% bovine casein and 1.0% human serum albumin, read-out: hGIPR Emax, % ± SEM), the Emax was 92.2%.
For `CC[C@H](C)[C@H](NC(=O)[C@H](CC(C)C)NC(=O)[C@](C)(Cc1ccc(O)cc1)NC(=O)[C@@H](CCC(=O)O)NC(=O)[C@@H](NC(=O)[C@H](Cc1ccccc1)NC(=O)[C@H](CCCCNC(=O)COCCOCCNC(=O)CC[C@H](NC(=O)CCCCCCCCCOc1ccc(C(=O)O)cc1)C(=O)O)NC(=O)C(C)(C)NC(=O)[C@H](CCC(N)=O)NC(=O)[C@H](C)NC(=O)[C@H](CCCCNC(=O)COCCOCCNC(=O)CC[C@H](NC(=O)CCCCCCCCCOc1ccc(C(=O)O)cc1)C(=O)O)NC(=O)[C@H](CCCN)NC(=O)[C@H](CC(=O)O)NC(=O)[C@H](CC(C)C)NC(=O)[C@](C)(CC(C)C)NC(=O)[C@@H](NC(=O)C(C)(C)NC(=O)[C@H](Cc1ccncc1)NC(=O)[C@H](CC(=O)O)NC(=O)[C@H](CO)NC(=O)[C@@H](NC(=O)[C@](C)(Cc1ccccc1F)NC(=O)[C@@H](NC(=O)CNC(=O)[C@H](CCC(=O)O)NC(=O)C(C)(C)NC(=O)[C@@H](N)Cc1ccc(O)cc1)[C@@H](C)O)[C@@H](C)O)[C@@H](C)CC)[C@@H](C)CC)C(=O)N[C@@H](CCC(=O)O)C(=O)NCC(=O)NCC(=O)N1CCC[C@H]1C(=O)N[C@@H](CO)C(=O)N[C@@H](CO)C(=O)NCC(=O)N[C@@H](C)C(=O)N1CCC[C@H]1C(=O)N1CCC[C@H]1C(=O)N1CCC[C@H]1C(=O)N[C@@H](CO)C(N)=O` [Example 360], the Emax in test [1] (HEK293, read-out: hGLP-1R Emax, % ± SEM, cAMP, 37° C., 0.1% bovine casein and 1.0% human serum albumin) came out at 97.1%; in test [1] (setting [6]) it was 89.8%. In addition, the EC50 is 0.301 nM in test [1] (setting [7]), > 9950 nM in test [3] (setting [8]), > 9950 nM in test [3] (setting [9]) and 0.0121 nM in test [4] (setting [10]). Besides, the Ki in test [2] stood at 0.046 nM; in test [5], 0.673 nM.
For the compound `CC[C@H](C)[C@H](NC(=O)[C@H](CC(C)C)NC(=O)[C@](C)(Cc1ccc(O)cc1)NC(=O)[C@H](CCCCNC(=O)CCOCCOCCOCCNC(=O)CC[C@H](NC(=O)CCCCCCCCCOc1ccc(C(=O)O)cc1)C(=O)O)NC(=O)[C@@H](NC(=O)[C@H](Cc1ccccc1)NC(=O)[C@H](CCCN)NC(=O)C(C)(C)NC(=O)[C@H](CCC(N)=O)NC(=O)[C@H](C)NC(=O)[C@H](CCC(N)=O)NC(=O)[C@H](CCCN)NC(=O)[C@H](CC(=O)O)NC(=O)[C@H](CC(C)C)NC(=O)[C@](C)(CC(C)C)NC(=O)[C@@H](NC(=O)C(C)(C)NC(=O)[C@H](Cc1ccncc1)NC(=O)[C@H](CC(=O)O)NC(=O)[C@H](CO)NC(=O)[C@@H](NC(=O)[C@](C)(Cc1ccccc1F)NC(=O)[C@@H](NC(=O)CNC(=O)[C@H](CCC(=O)O)NC(=O)C(C)(C)NC(=O)[C@@H](N)Cc1ccc(O)cc1)[C@@H](C)O)[C@@H](C)O)[C@@H](C)CC)[C@@H](C)CC)C(=O)N[C@@H](CCCCNC(=O)CCOCCOCCOCCNC(=O)CC[C@H](NC(=O)CCCCCCCCCOc1ccc(C(=O)O)cc1)C(=O)O)C(=O)NCC(=O)NCC(=O)N1CCC[C@H]1C(=O)N[C@@H](CO)C(=O)N[C@@H](CO)C(=O)NCC(=O)N[C@@H](C)C(=O)N1CCC[C@H]1C(=O)N1CCC[C@H]1C(=O)N1CCC[C@H]1C(=O)N[C@@H](CO)C(N)=O` [Example 462], in test [1] (setting [6]), the Emax was found to be 113%. Also, the concentration giving a half-maximal response (EC50) in test [1] (setting [7]) was 0.189 nM; in test [3] (setting [8]), > 9950 nM; in test [3] (setting [9]) it was > 9950 nM; in test [4] (setting [10]), 0.0128 nM. In addition, the results for the Ki in test [2] and in test [5] were 0.0102 nM and 0.125 nM, respectively.
